In patent US20200318189A1 (CHANG GUNG MEMORIAL HOSPITAL, LINKOU, priority 2017, published 2020):

Tests used:
[1] = test system: HLA-A*0207 allele
[2] = test system: HLA-B*1502 allele
[3] = test system: HLA-A*0207 and HLA-B*1502 alleles

Sensitivity (%) [1]: 42.31% | Specificity (%) [1]: 83.18% | Sensitivity (%) [2]: 26.92% | Specificity (%) [2]: 90.33% | Sensitivity (%) [3]: 61.54% | Specificity (%) [3]: 73.51%
Compound: Nc1nnc(-c2cccc(Cl)c2Cl)c(N)n1 [lamotrigine, Lamotrigine]
